The values that follow come from PMC2346451 (PLoS ONE, 2008).

The test system of experiment [1] is dorsal root ganglion neurons. Kind of experiment: Whole-cell patch clamp of acutely isolated dorsal root ganglion neurons. In kind it is cell-based, rat. The source says:
Dorsal root ganglion neurons from all spinal levels were removed from postnatal day 12 to 20 Sprague Dawley rats and the nerve roots trimmed. Calcium- and magnesium-free (CMF) Hank's solution contained (in mM): 136.9 sodium chloride, 5.4 potassium chloride, 0.34 dibasic sodium orthophosphate, 0.44 monopotassium phosphate, 5.6 glucose, 5 4-(2-hydroxyethyl)-1-piperazineethanesulfonic acid, 0.005% phenol red, pH 7.4. CMF Hank's was used throughout the isolation and enzymatic treatments. The isolated ganglia were treated for 20 minutes at 37°C with 20 U/ml of papain (Worthington Biochemical, Lakewood, NJ) and 5 mM cysteine. The ganglia were then transferred to CMF Hank's with 3 mg/ml collagenase (type I; Worthington) and 4 mg/ml dispase (neutral type II; Roche Applied Science, Indianapolis, IN) for 20 minutes at 37°C. Individual neurons were dispersed by trituration through a fire-polished glass Pasteur pipette in 3 ml of media containing DMEM, 5% horse serum, 10% fetal bovine serum, 1% penicillin/streptomycin, and 100 ng/ml Nerve Growth Factor (7S subunit; Invitrogen). The neurons were preplated in tissue culture-treated Petri dishes for 1 hour when used for electrophysiology (3 hours for calcium imaging), and then plated on poly-L-lysine (1 mg/ml)-coated glass coverslips. Dorsal root ganglion neurons were allowed to settle for 1–2 hours at 37°C before patching or imaging over the next 6 hours.
(§1) Electrophysiological experiments were performed using the whole-cell patch-clamp technique at room temperature. Modified Ringer's solution with low chloride and nominal calcium contained (in mM): 130 sodium hydroxide, 5 potassium chloride, 1 magnesium chloride, 10 sodium 4-(2-hydroxyethyl)-1-piperazineethanesulfonic acid, 10 2-(N-morpholino)ethanesulfonic acid, and 20 glucose (pH 7.4; 310 milli-osmolar). […] 2 mM calcium chloride was included in the external solution where noted. To activate TRPV1, the modified Ringer's solution was made at pH 5 (low pH solution) and the chloride concentration was kept to a minimum to prevent contamination of the TRPV1 currents with acid-activated chloride currents. For recordings from heterologously expressing cells, the internal pipette solution contained (in mM): 125 cesium-Methanesulfonate, 10 cesium (1.2-bis(o-aminophenoxy)ethane-N,N,N',N'-tetraacetic acid, 8 sodium chloride, 4 magnesium adenosine triphosphate, and 10 HEPES (pH 7.2; 290 mOSM; nominal free calcium concentrations). For TRPA1 and dorsal root ganglion recordings, the internal pipette solution contained (in mM): 110 cesium-Methanesulfonate, 0.5 cesium4BAPTA, 8 sodium chloride, 0.2 calcium chloride, 4 magnesium-ATP, 4 sodium-GTP, and 10 4-(2-hydroxyethyl)-1-piperazineethanesulfonic acid (pH 7.2; 290 mOSM; 100 nM free calcium internal). MaxChelator was used to calculate the free calcium concentration (http://www.stanford.edu/cpatton/maxc.html).
(§2) Recordings were obtained using an Axopatch 200B amplifier, Digidata 1322A analog-to-digital converter, and pClamp 8.01 software (Molecular Devices, Union City, CA). Data were low-pass filtered at 2 kHz and digitized at 5 kHz. Borosilicate glass pipettes (World Precision Instruments, Sarasota, FL) were typically 3 MΩ pipette resistance after fire polishing. Cell capacitance was measured for each cell, and access resistance compensated to ∼80%. Recordings were begun ∼5 minutes after initial rupture to ensure initial steady state conditions. Current-voltage (I-V) relations were obtained using a ramp protocol. Voltage ramps (400 ms) from −100 to +40 or +100 mV were applied every 1–2 seconds and the holding potential was either −70 mV or 0 mV (see Figure Legends). A 40 ms step was added at the beginning and end of the ramp (i.e. at −100 mV, +40 mV or +100 mV). Liquid junction potentials were not corrected.
A general note: The patch-clamp technique gives a direct electrical read-out from membranes.

Experiment [2] deals with rat TRPM8 (rTRPM8) (Rattus norvegicus, UniProt Q8R455). Kind of experiment: Whole-cell patch clamp of rat TRPM8 expressed in HEK-293T cells. The class given is cell-based. The protocol:
(§3) Transformed human embryonic kidney-293 (HEK-293T) cells were grown in Dulbecco's modified Eagle's medium (DMEM)+F-12 supplemented with 10% fetal calf serum, and 1% penicillin/streptomycin in 5% CO2 at 37°C. Cells grown to 90% confluence in 35 mm Petri dishes were transiently transfected with plasmid DNA encoding a TRP channel construct (1 µg). Rat TRPV1 (rTRPV1) was cloned into an enhanced green fluorescent protein-containing vector (pTracer-CMV2; Invitrogen, Carlsbad, CA). Chicken TRPV1 (cTRPV1), the chicken rat TRPV1 chimera (crcTRPV1), rat TRPV2 (rTRPV2), mouse TRPV3 (mTRPV3), mouse TRPV4 (mTRPV4), rat TRPM8 (rTRPM8), and rat TRPA1 (rTRPA1), were cloned into pcDNA3 and co-transfected with enhanced green fluorescent protein (0.1 µg) to follow expression. The cTRPV1 and crcTRPV1 clones were kindly provided by Dr. David Julius. Recordings were carried out 24–36 hours after transfection. Cells were split via trypsin EDTA, plated on glass coverslips at 5–10% confluence, and used 2–3 hours later.
as §1, §2
(§4) The dose response curves were fit with the Hill equation, where [drawing 8] and [A] is the concentration of agonist or blocker, N is the Hill coefficient, and KD is the [A] for Imeasured/Imax = 0.5. The term apparent dissociation constant is used in place of the half concentration of excitation and inhibition. […] Averaged data are presented as mean±standard error (S.E.) throughout. Statistical analysis included paired and unpaired Student's t-test comparisons of the data; p values are reported in the text.

Experiment [3] has as its target rat TRPA1 (rTRPA1) (Rattus norvegicus, UniProt Q6RI86). As to the kind of experiment: Whole-cell patch clamp of rat TRPA1 expressed in HEK-293T cells. The class given is cell-based. Here is the method:
as §3, §1, §2, §4

Experiment [4] deals with T1, mouse TRPV3 (mTRPV3) (Mus musculus, UniProt Q8K424).
T1 sequence (Q8K424 1-791): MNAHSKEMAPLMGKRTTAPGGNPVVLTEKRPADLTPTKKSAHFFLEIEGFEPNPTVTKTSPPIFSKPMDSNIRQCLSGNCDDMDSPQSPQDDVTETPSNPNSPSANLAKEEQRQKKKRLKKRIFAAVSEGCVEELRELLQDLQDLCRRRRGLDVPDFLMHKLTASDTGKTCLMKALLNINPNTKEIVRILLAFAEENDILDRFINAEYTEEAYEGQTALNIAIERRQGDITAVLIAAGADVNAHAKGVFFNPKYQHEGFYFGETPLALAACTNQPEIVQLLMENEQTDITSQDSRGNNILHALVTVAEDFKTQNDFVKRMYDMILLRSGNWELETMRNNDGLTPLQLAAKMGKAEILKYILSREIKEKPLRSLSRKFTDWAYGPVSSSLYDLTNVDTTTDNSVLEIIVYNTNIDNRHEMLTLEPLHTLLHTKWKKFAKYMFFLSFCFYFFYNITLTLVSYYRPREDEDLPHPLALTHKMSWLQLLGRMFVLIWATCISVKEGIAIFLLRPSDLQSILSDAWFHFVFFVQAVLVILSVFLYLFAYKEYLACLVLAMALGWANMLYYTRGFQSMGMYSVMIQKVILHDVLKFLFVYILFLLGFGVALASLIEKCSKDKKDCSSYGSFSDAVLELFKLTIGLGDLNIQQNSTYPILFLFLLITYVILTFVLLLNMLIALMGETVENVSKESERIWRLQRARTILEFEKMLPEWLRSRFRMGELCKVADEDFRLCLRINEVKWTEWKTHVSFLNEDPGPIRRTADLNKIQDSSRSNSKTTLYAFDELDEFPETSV
As to the kind of experiment: Whole-cell patch clamp of mouse TRPV3 expressed in HEK-293T cells. In kind it is cell-based. Here is the method:
as §3, §1, §2, §4

Experiment [5] concerns the target rat TRPV1 (rTRPV1) (Rattus norvegicus, UniProt O35433). Kind of experiment: Whole-cell patch clamp of rat TRPV1 expressed in HEK-293T cells. The class given is cell-based. Conditions: for Activation of TRPV1 current: analyzed at −40 mV and +40 mV; for Decrease of pH 5-evoked TRPV1 current: 300 µM, −40 mV. Here is the method: as §3, §1, §2, §4
[6] abbreviates: after citral inhibition of TRPV1.

Chain of rat TRPV1 (rTRPV1) (O35433 whole entry): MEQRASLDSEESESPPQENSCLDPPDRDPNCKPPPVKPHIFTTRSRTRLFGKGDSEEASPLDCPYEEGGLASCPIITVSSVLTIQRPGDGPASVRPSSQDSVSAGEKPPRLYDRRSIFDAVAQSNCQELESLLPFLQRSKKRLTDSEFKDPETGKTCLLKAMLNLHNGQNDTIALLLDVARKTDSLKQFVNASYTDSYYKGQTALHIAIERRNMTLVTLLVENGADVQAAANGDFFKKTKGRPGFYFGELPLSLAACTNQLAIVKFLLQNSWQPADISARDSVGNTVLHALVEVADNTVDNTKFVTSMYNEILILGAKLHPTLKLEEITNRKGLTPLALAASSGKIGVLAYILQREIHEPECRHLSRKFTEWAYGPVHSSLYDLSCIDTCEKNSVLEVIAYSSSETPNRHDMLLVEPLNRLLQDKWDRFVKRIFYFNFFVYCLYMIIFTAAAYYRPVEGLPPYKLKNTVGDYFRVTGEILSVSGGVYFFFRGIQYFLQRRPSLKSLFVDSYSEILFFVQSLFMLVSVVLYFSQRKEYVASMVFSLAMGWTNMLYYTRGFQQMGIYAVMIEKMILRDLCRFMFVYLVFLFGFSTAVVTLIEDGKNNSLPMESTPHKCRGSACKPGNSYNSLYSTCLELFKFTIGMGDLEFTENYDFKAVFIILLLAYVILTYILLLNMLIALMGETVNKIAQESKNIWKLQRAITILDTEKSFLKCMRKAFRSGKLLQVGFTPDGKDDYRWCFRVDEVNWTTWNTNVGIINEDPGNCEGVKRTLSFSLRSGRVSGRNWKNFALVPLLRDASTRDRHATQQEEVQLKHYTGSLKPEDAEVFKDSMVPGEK
Chain of rat TRPA1 (rTRPA1) (Q6RI86 whole entry): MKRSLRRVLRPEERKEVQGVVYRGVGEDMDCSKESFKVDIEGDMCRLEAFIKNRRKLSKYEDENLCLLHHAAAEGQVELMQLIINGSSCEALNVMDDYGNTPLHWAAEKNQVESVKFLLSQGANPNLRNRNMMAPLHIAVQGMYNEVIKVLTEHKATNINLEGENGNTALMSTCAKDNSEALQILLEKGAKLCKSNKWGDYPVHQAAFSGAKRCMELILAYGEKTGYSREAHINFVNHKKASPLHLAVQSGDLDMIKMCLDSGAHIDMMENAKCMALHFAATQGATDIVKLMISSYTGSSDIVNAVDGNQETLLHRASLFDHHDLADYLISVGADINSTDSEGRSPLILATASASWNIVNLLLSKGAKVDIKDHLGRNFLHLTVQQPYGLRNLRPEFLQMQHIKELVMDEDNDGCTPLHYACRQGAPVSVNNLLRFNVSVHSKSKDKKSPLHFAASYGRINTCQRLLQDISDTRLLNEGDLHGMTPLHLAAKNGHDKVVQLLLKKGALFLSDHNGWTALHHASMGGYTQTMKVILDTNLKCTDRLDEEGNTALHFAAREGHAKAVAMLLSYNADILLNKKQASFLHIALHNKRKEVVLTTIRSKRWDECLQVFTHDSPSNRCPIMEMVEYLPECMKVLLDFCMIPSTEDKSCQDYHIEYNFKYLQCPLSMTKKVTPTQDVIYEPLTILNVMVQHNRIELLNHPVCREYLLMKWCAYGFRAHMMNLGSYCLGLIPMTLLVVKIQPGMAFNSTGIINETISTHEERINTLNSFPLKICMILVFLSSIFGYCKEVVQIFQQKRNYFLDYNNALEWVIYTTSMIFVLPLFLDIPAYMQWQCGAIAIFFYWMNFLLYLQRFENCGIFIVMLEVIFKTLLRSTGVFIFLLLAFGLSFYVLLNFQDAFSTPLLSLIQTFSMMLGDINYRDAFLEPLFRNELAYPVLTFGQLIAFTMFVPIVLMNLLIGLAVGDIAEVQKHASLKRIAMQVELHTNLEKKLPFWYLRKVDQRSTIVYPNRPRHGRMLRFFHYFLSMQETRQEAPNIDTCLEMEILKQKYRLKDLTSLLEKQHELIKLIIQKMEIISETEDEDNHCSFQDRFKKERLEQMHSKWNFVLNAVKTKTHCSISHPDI
Chain of rat TRPM8 (rTRPM8) (Q8R455 whole entry): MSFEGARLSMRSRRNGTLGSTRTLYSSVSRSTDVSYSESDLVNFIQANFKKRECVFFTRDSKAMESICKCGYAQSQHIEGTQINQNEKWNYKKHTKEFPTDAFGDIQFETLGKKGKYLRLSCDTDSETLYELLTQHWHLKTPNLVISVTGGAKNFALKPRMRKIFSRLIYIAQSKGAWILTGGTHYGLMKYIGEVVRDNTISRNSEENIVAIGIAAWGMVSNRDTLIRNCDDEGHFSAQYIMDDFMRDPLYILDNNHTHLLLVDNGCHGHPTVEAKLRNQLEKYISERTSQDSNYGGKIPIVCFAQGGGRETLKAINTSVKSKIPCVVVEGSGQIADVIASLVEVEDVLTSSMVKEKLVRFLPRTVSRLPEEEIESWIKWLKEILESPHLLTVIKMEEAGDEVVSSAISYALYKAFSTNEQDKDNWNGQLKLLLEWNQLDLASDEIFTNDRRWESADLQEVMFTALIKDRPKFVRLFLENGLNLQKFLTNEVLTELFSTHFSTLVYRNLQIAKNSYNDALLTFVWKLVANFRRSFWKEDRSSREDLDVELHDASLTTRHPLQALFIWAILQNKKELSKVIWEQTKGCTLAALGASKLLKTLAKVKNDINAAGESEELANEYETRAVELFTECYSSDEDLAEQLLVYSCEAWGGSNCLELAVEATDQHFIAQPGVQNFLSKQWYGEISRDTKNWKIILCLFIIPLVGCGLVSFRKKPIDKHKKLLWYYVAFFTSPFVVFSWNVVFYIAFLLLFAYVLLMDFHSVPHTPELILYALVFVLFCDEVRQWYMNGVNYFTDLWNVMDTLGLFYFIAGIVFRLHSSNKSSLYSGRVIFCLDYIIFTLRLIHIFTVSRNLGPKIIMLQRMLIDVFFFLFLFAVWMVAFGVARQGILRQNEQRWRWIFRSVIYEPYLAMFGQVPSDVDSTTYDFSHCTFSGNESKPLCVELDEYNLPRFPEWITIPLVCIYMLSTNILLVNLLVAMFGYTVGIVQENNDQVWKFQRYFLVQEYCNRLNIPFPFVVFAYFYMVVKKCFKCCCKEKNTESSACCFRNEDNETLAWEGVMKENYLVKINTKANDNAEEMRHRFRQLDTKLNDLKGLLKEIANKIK

Turning to `NCCOB(c1ccccc1)c1ccccc1` [2-aminoethyldiphenyl borate, reference compound], the “Potentiation of current by repeated application, representative neuron” value in experiment [1] (+100 mV) worked out at 2.3 fold. Further, in experiment [1] (setting [6]), the “Cells with evoked currents among cells in which TRPV1 was inhibited” value is on record as 27 of 30 and the “Increase of current in cells in which TRPV1 was inhibited” value worked out at 3±0.4 fold. Moreover, in experiment [1] (second responsive population (six of twelve neurons)), the “Potentiation of current by repetitive application” value is 1.7±0.3 fold.

On to `CC12CCC(CC1=O)C2(C)C` (stereo not drawn) [camphor, reference compound], for which the “Increase in outward current” value in experiment [1] (second 2-aminoethyldiphenyl borate responsive population) is 1.3 fold.

Turning to `CC(C)=CCC/C(C)=C/C=O` [geranial], the “Activation of TRPM8 current” value in experiment [2] is “weakly activated”. In addition, the “Activation of TRPA1 current” value in experiment [3] is “weakly activated”. Further, the “Activation of TRPV3 current” value in experiment [4] is on record as “weakly activated”. In experiment [5], the “Activation of TRPV1 current” value is reported as “weakly activated”.

Take `CC(C)=CCC/C(C)=C/CO` [geraniol]: in experiment [2], the “Activation of TRPM8 current” value is “weakly activated”. For the same compound, the “Activation of TRPA1 current” value in experiment [3] is “weakly activated”. Further, in experiment [3] (1 mM, −100 mV, n = 9), the “Block of inward TRPA1 current” value is on record as 70%. For the same compound, the “Activation of TRPV3 current” value in experiment [4] is given as “weakly activated”. In experiment [5], the “Decrease of pH 5-evoked TRPV1 current” value came to 45% and the “Activation of TRPV1 current” value is listed as “weakly activated”.

`CC(C)=CCC/C(C)=C\C=O` [neral]: the “Activation of TRPM8 current” value in experiment [2] is “weakly activated”. The “Activation of TRPA1 current” value in experiment [3] is listed as “weakly activated”. For the same compound, the “Activation of TRPV3 current” value in experiment [4] was “weakly activated”. In addition, the “Activation of TRPV1 current” value in experiment [5] is reported as “weakly activated”.

On to `CC(C)=CCC/C(C)=C\CO` [nerol], for which, in experiment [2], the “Activation of TRPM8 current” value is reported as “weakly activated”. In addition, in experiment [3], the “Activation of TRPA1 current” value is recorded as “weakly activated”. The “Increase of TRPA1 current on second application” value in experiment [3] (1 mM, −100 mV, n = 4) turned out to be 2 fold. Also, the “Activation of TRPV3 current” value in experiment [4] was “weakly activated”. Further, in experiment [5], the “Decrease of pH 5-evoked TRPV1 current” value came out at 50% and the “Activation of TRPV1 current” value is recorded as “weakly activated”. In addition, the “TRPV1 current recovered after washout” value in experiment [5] (1 mM, 5 minutes after washout, in 3 of 4 cells) was less than 1%. Moreover, in experiment [5] (HEK-293T, pH 5, 1 mM, sustained after 5 minutes washout, read-out: Inhibition of pH 5-evoked TRPV1 current), the inhibition (usually the drop in the measured response relative to a control, in per cent) at 1000 µM was 100%.
